Data from US10543160B2, “Cosmetic composition including water soluble scrub particles containing polypeptide and/or cell culture” (PAEAN AESTHETICS INC., priority 2015, dated 2020).

Test system: 3T3 fibroblasts
Assay: Measurement of EGF activities using 3T3 fibroblasts, corrected to NIBSC EGF standard product
Format: cell-based
Details: recombinant EGF of purity 90% or more
Experimental: According to an embodiment of the present invention, the EGF may be an EGF which is prepared from a recombinant E. coli or a plant and is purified to a purity of 90% or more.

## epidermal growth factor [EGF, peptide of 6,200 Da with 53 amino acid residues, prepared from recombinant E. coli or a plant, purity 90% or more]
  EGF activity per mg: one million
